Results: patent US9446015B2, “Quinone based nitric oxide donating compounds for ophthalmic use” (NICOX SCIENCE IRELAND, priority 2012, dated 2016)
Where two headings read alike, the source gives them in different places.

Legend:
[1] = tested on: lipidic peroxidation of membrane lipids in rat hepatocytes (hepatic microsomal membranes); test: In vitro antioxidant activity (TBARS test); type: biochemical; conditions: read-out: Antioxidant activity IC50 μM (CL 95%)
Procedure: The antioxidant properties of compounds (6) (disclosed in example 1) and compound (23) (disclosed in example 19) and reference antioxidant compounds were assessed after NADPH-induced lipidic peroxidation of membrane lipids in rat hepatocytes using the detection of 2-thiobarbituric acid reactive substances (TBARS) by visible spectroscopy.
Hepatic microsomal membranes from male Wistar rats (200-250 g) were prepared by differential centrifugation (8000 g, 20 min; 120000 g, 1 h) in a HEPES/sucrose buffer (10 mM, 250 mM, pH 7.4) and stored at −80° C. Incubation was performed at 37° C. in a Tris-HCl/KCl (100 mM/150 mM, pH 7.4) containing microsomal membranes (2 mg prot/mL), sodium ascorbate (100 μM), and DMSO solutions of the tested compounds. Lipid peroxidation was initiated by adding ADP-FeCl3 and NADPH (Method A) or 2.5 μM FeSO4 (Method B) (as described by Boschi D. et al., J. Med. Chem. 2006, 49:2886-2897). Aliquots were taken from the incubation mixture at 5, 15, and 30 min and treated with trichloroacetic acid (TCA) 10% w/v. Lipid peroxidation was assessed by spectrophotometric (543 nm) determination of the TBARS consisting mainly of malondialdehyde (MDA). TBARS concentrations (expressed in nmol/mg protein) were obtained by interpolation with a MDA standard curve. The antioxidant activity of tested compounds was evaluated as the percent inhibition of TBARS production with respect to control samples, using the values obtained after 30 min of incubation. IC50 values were calculated by nonlinear regression analysis.

[2] = tested on: hypertonic saline-induced IOP increase in rabbits; test: IOP lowering activity in hypertonic saline-induced IOP increase in rabbits; type: in vivo, New Zealand White rabbits
From the text: Intraocular pressure (IOP) lowering activity in hypertonic saline-induced IOP increase in rabbits.
This animal model of elevated IOP was used for assessing the intraocular pressure (IOP) lowering activities of some compounds of the invention, timolol, dorzolamide and 5-isosorbide mononitrate.
• compounds (6), (20) and (25) • timolol and dorzolamide that are drugs commonly used for the treatment of glaucoma and ocular hypertension. • Isosorbide mononitrate (5-ISMN) that is a commonly used nitric oxide donor drug.
(§1) Timolol, dorzolamide and 5-ISMN were tested as reference compounds. Adults male New Zealand White rabbits weighting 1.8-2.0 Kg were used in the experiments.
IOP was measured using a Tono-Pen XL prior to hypertonic saline injection (basal) and at 30, 60, 120 and 240 min thereafter. Vehicle (5% cremophor-EL; 0.3% DMSO; 0.2 mg/ml BAK in PBS pH 6.0) and all the tested compounds dissolved in the vehicle were instilled as eye drops immediately after hypertonic saline injection. Eyes were randomly assigned to different treatment groups. Vehicle and the tested compounds were directly instilled into the conjunctiva pocket at the desired doses. One drop of 0.4% oxybuprocaine hydrochloride (Novesine, Sandoz) was instilled in each eye immediately before each set of pressure measurements.
Results are reported in Table 6, the ocular hypotensive activities of the tested compounds are expressed as IOP change at 60 and 120 minutes after topical administration versus vehicle and versus the basal IOP.

[3] = tested on: ocular normotensive New Zealand rabbits; test: IOP lowering activity in ocular normotensive New Zealand rabbits; type: in vivo, New Zealand White rabbits
Procedure: Intraocular pressure (IOP) lowering activity in ocular normotensive New Zealand rabbits.
• compound (6) • timolol that is a drug commonly used for the treatment of glaucoma and ocular hypertension. • Isosorbide mononitrate (5-ISMN) that is a commonly used nitric oxide donor drug.
as §1
IOP was measured using a pneumatonometer 30 CLASSIC™ before topical application (basal) and a different time point (30, 60, 120, 240 and 300 min) thereafter. Vehicle (5% cremophor-EL; 0.3% DMSO; 0.2 mg/ml BAK in PBS pH 6.0) or tested compounds dissolved in the vehicle were instilled as eye drops into the conjunctiva pocket. Eyes were randomly assigned to different treatment groups. One drop of 0.4% oxybuprocaine hydrochloride (Novesine, Sandoz) was instilled in each eye immediately before each set of pressure measurements.
The test results are reported in Table 7, the ocular hypotensive activity is expressed as IOP changes at 30, 60, 120 and 300 minutes after topical administration versus vehicle and versus IOP at basal.

[4] = 60 min after topical administration
[5] = 120 min after topical administration
[6] = Method A (ADP-FeCl3 and NADPH), inhibition of TBARS production after 30 min

| SMILES | ΔΔ (mmHg), IOP change versus vehicle and versus basal IOP [2, 4] | ΔΔ (mmHg), IOP change versus vehicle and versus basal IOP [2, 5] | also measured |
| --- | --- | --- | --- |
| O=C(O)/C=C/c1ccc(O)c(O)c1 [Caffeic acid] |  |  | IC50 ([1]; Method B (2.5 μM FeSO4)): 33 µM |
| COC1=C(OC)C(=O)C(CCCOCCO[N+](=O)[O-])=C(C)C1=O [Compound (20), 2-(3-(4,5-dimethoxy-2-methyl-3,6-dioxocyclohexa-1,4-dienyl)propoxy)ethyl nitrate] | −18.9 ± 2.4 mmHg | −9.1 ± 1.6 mmHg |  |
| CC1=C(CCCCCCO[N+](=O)[O-])C(=O)c2ccccc2C1=O [Compound (23), 6-(3-methyl-1,4-dioxo-1,4-dihydronaphthalen-2-yl) hexyl nitrate] |  |  | IC50 [1, 6]: 1.4 µM |
| CC1=C(CCCOCCCO[N+](=O)[O-])C(=O)c2ccccc2C1=O [Compound (25), 3-(3-(3-methyl-1,4-dioxo-1,4-dihydronaphthalen-2-yl)propoxy)propyl nitrate] | −11.5 ± 2.8 mmHg | −10.2 ± 1.3 mmHg |  |
| CCN[C@H]1C[C@H](C)S(=O)(=O)c2sc(S(N)(=O)=O)cc21 [Dorzolamide, dorzolamide] | −6.9 ± 2.1 mmHg | −6.7 ± 1.7 mmHg |  |
| COC1=C(OC)C(=O)C(CCCCCCCCCCO)=C(C)C1=O [Idebenone] |  |  | IC50 [1, 6]: 1.6 µM |
| CC(C)(C)NC[C@H](O)COc1nsnc1N1CCOCC1 [Timolol, timolol] | −5.7 ± 1.4 mmHg | −8.4 ± 1.2 mmHg | ΔΔ (mmHg), IOP change versus vehicle and versus IOP at basal ([3]; 30 min after topical administration): −0.4 ± 0.4 mmHg; ΔΔ (mmHg), IOP change versus vehicle and versus IOP at basal [3, 4]: −0.7 ± 0.4 mmHg; ΔΔ (mmHg), IOP change versus vehicle and versus IOP at basal [3, 5]: −0.9 ± 0.4 mmHg; ΔΔ (mmHg), IOP change versus vehicle and versus IOP at basal ([3]; 300 min after topical administration): −0.05 ± 0.4 mmHg |
